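Following 48 hours of exposure in 96-well plates, responses at five concentrations were used to interpolate endpoints linearly. GI50 marks 50% less growth. TGI denotes the concentration required for complete inhibition of growth.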
Experiments:
Assay in all cases: growth of human tumour cells (NCI), 48 h
[1] = tested on: 786-0 renal
[2] = tested on: A498 renal
[3] = tested on: A549 NSCLC
[4] = tested on: ACHN renal
[5] = tested on: BT-549 breast
[6] = tested on: CAKI-1 renal
[7] = tested on: CCRF-CEM leukemia
[8] = tested on: COLO 205 colon
[9] = tested on: DU-145 prostate
[10] = tested on: EKVX NSCLC
[11] = tested on: HCC-2998 colon
[12] = tested on: HCT-116 colon
[13] = tested on: HCT-15 colon
[14] = tested on: HL-60(TB) leukemia
[15] = tested on: HOP-62 NSCLC
[16] = tested on: HOP-92 NSCLC
[17] = tested on: HS 578T breast
[18] = tested on: HT29 colon
[19] = tested on: IGROV1 ovarian
[20] = tested on: K-562 leukemia
[21] = tested on: KM12 colon
[22] = tested on: LOX IMVI melanoma
[23] = tested on: M14 melanoma
[24] = tested on: MALME-3M melanoma
[25] = tested on: MCF7 breast
[26] = tested on: MDA-MB-231 breast
[27] = tested on: MDA-MB-435
[28] = tested on: MOLT-4 leukemia
[29] = tested on: NCI-H226 lung

**Q.** How did the GI50 [1] turn out when `Cc1cc2nc3c4cc(Cl)ccc4n(CC(=S)NCCN(C)C)c3nc2cc1C` was run?
**A.** 1.64 µM

**Q.** What about the TGI [1] of the same compound?
**A.** 3.2 µM

**Q.** What about the GI50 [2] of the same compound?
**A.** 17.1 µM

**Q.** And the TGI [2]?
**A.** 31.3 µM

**Q.** And the GI50 [3]?
**A.** 1.75 µM

**Q.** And the TGI [3]?
**A.** 3.52 µM

**Q.** What about the GI50 [4] of the same compound?
**A.** 1.6 µM

**Q.** And the TGI [4]?
**A.** 2.95 µM

**Q.** What about the GI50 [5] of the same compound?
**A.** 13.3 µM

**Q.** What about the TGI [5] of the same compound?
**A.** 26.5 µM

**Q.** What about the GI50 [6] of the same compound?
**A.** 2.84 µM

**Q.** What about the TGI [6] of the same compound?
**A.** 14.4 µM

**Q.** And the GI50 [7]?
**A.** 2.36 µM

**Q.** What about the TGI [7] of the same compound?
**A.** 6.17 µM

**Q.** What about the GI50 [8] of the same compound?
**A.** 1.78 µM

**Q.** What about the TGI [8] of the same compound?
**A.** 3.49 µM

**Q.** And the GI50 [9]?
**A.** 2.64 µM

**Q.** And the TGI [9]?
**A.** 6.99 µM

**Q.** What about the GI50 [10] of the same compound?
**A.** 3.07 µM

**Q.** And the TGI [10]?
**A.** 11.8 µM

**Q.** What about the GI50 [11] of the same compound?
**A.** 1.66 µM

**Q.** And the TGI [11]?
**A.** 3.09 µM

**Q.** And the GI50 [12]?
**A.** 1.73 µM

**Q.** And the TGI [12]?
**A.** 3.17 µM

**Q.** What about the GI50 [13] of the same compound?
**A.** 1.75 µM

**Q.** What about the TGI [13] of the same compound?
**A.** 3.17 µM

**Q.** And the GI50 [14]?
**A.** 1.87 µM

**Q.** And the TGI [14]?
**A.** 3.99 µM

**Q.** What about the GI50 [15] of the same compound?
**A.** 6.68 µM

**Q.** And the TGI [15]?
**A.** 21.6 µM

**Q.** What about the GI50 [16] of the same compound?
**A.** 1.79 µM

**Q.** What about the TGI [16] of the same compound?
**A.** 8.06 µM

**Q.** What about the GI50 [17] of the same compound?
**A.** 11 µM

**Q.** What about the TGI [17] of the same compound?
**A.** 30.8 µM

**Q.** And the GI50 [18]?
**A.** 1.78 µM

**Q.** What about the TGI [18] of the same compound?
**A.** 3.36 µM

**Q.** What about the GI50 [19] of the same compound?
**A.** 3.53 µM

**Q.** And the TGI [19]?
**A.** 15.6 µM

**Q.** What about the GI50 [20] of the same compound?
**A.** 2.07 µM

**Q.** What about the TGI [20] of the same compound?
**A.** 5.21 µM

**Q.** And the GI50 [21]?
**A.** 2.73 µM

**Q.** What about the TGI [21] of the same compound?
**A.** 8.29 µM

**Q.** And the GI50 [22]?
**A.** 0.241 µM

**Q.** And the TGI [22]?
**A.** 1.77 µM

**Q.** And the GI50 [23]?
**A.** 1.64 µM

**Q.** And the TGI [23]?
**A.** 3.12 µM

**Q.** What about the GI50 [24] of the same compound?
**A.** 1.86 µM

**Q.** And the TGI [24]?
**A.** 4.16 µM

**Q.** And the GI50 [25]?
**A.** 1.19 µM

**Q.** And the TGI [25]?
**A.** 2.51 µM

**Q.** What about the GI50 [26] of the same compound?
**A.** 1.82 µM

**Q.** And the TGI [26]?
**A.** 3.63 µM

**Q.** What about the GI50 [27] of the same compound?
**A.** 1.89 µM

**Q.** What about the TGI [27] of the same compound?
**A.** 3.53 µM

**Q.** What about the GI50 [28] of the same compound?
**A.** 1.97 µM

**Q.** And the TGI [28]?
**A.** 4.29 µM

**Q.** What about the GI50 [29] of the same compound?
**A.** 10.5 µM
